Like-named read-outs stand apart in the source and are kept apart here.
How the values were obtained:
[1] = Stability of thiourea chelates; assay type: physicochemical
kidney = test: Renal clearance and extraction efficiency in rats; assay type: in vivo, rat; details: technetium or rhenium chelate
Experimental: Clearance was determined by averaging three clearances based on three successive 10 minute urine collections. Clearance=UV/P where U is the urine concentration, V is the urine volume, and P is the plasma concentration. To measure extraction efficiency (EE), a left renal venous blood (0.5 ml) sample was obtained followed by a 3-ml carotid arterial sample. Both blood samples were centrifuged within 5 minutes to obtain a plasma sample. The extraction efficiency was calculated by measuring the difference between the arterial and venous blood sample: EE=(arterial concentration--venous concentrationlarterial concentration). Plasma protein binding (PPB) was determined by ultracentrifugation (Centrifree, Amicon, Inc., Beverly, Mass., micropartition system) of 1 ml arterial plasma. PPB=[1.0-(ultrafiltrate concentration/plasma concentration)]×100.

[2] = Normal volunteer studies: plasma clearance, urinary excretion, imaging; assay type: in vivo, human; details: humans; for Clearance rate (EC/OIH): relative to coinjected OIH
Experimental: ^99m Tc LL-EC, DD-EC and DL-EC were each evaluated in three normal male volunteers. The HPLC purified complexes and phosphate-buffered saline (pH 7.0) were passed through a SEP-PAK Plus C18 cartridge (primed with 1 ml ethanol) and a sterile Millex-GS 0.22 μm filter unit into a sterile, pyrogen-free empty vial. The final concentration was ~2.0 mCi/2.5 ml and the final pH ranged from 5.7 to 7.4. Test samples of each complex were sterile and pyrogen free. Approximately 2 mCi of each ^99m Tc complex were coinjected with 200 μCi of I-131 OIH and plasma samples were obtained at 5, 10, 15, 20, 30 45, 60 and 90 minutes post injection. The plasma clearances of 1-131 OIH and each EC complex were determined using the single injection, two-compartment model of Sapirstein et al., (1955) Am. J. Physiol. 181: 330-336. The volunteers voided at 30, 90 and 180 minutes post injection to determine the percent dose in the urine at each time period. A urine sample from the 30 minute urine collection was obtained for HPLC analysis from one of the normal volunteers and analyzed for each complex. One volunteer was imaged with each complex using a simultaneous acquisition with a 20% window centered over the 363 KeV photopeak of I-131 and a second 20% window over the 140 KeV photopeak of ^99m Tc. Data were acquired in a 128×128 matrix using a three phase dynamic acquisition: phase 1 consisted of 24 two second frames, phase 2 consisted of 16 fifteen second frames and phase 3 consisted of 40 thirty second frames. Data were acquired using a general Electric (Milwaukee, Wis.) Star-Cam computer fitted with a high energy collimator. All studies were performed with the approval of the Human Investigations Committee and a signed consent form was obtained.

[3] = Ionic forms at physiological pH; assay type: physicochemical
[4] = Biodistribution in normal rats (Table 1); assay type: in vivo, rat; details: for Bladder, percent of total activity / Carcass, percent of total activity / Intestines, percent of total activity / Kidneys, percent of total activity / Liver, percent of total activity / Stomach, percent of total activity: normal rats
Experimental: Tracheostomy was performed in an anesthetized rat and the left jugular vein was cannulated with one piece of PE-50 tubing for injection of the ^99m Tc radiopharmaceutical. The bladder was catheterized utilizing heat flared PE-50 tubing for urine collection. […] Each animal was sacrificed at the conclusion of the dynamic study and simultaneous static images of the isolated lungs, heart, liver, spleen, stomach, kidneys, bowel and bladder with urine were acquired as well as a static image of the rat carcass without the organs. Total counts for the injected dose were determined from the sum of the isolated organ counts and the carcass counts decay corrected to the time of organ imaging. Regions of interest were drawn around each organ to determine the percent injected dose in each organ.

plasma protein = details: cited from earlier work
[5] = mice and baboons; cited from earlier work
[6] = cited from earlier work
[7] = cited from earlier work; remark: listed apart in the source
kidneys = details: in vivo; cited from earlier work
[8] = mice, baboons, volunteers; cited from earlier work
brain = details: in vivo; cited from earlier work
[9] = cited from earlier work; remark: listed apart in the source

CC(C)(S)C(=O)NCCCNC(=S)NCCC(=O)O [(Me)2 -TAPTU-EtCOOH, dimethylthioacetamidepropylthiourea-ethylCOOH]
Stability compared with the corresponding thioacetamidethiourea derivative [1]: greater stability than the corresponding thioacetamide-thiourea derivative
Stability compared with the corresponding thioacetamidethiourea derivative ([1]; listed as dimethyl-TAPTU-EtCOOH): appeared to be more stable than the corresponding thioacetamidethiourea derivative

O=C(O)[C@@H](CS)NCCN[C@H](CS)C(=O)O [D,D-EC, D,D-ethylenedicysteine]
Renal clearance, in words (kidney): significantly higher than that of its LL-isomer and than that of ^99m Tc MAG3
Clearance rate (EC/OIH) [2]: 82±8%
Dianionic form at physiological pH [3]: 80%
Monoanionic form at physiological pH [3]: 20%
Bladder, percent of total activity ([4]; 22 minutes post injection): 63.2% of total activity
Carcass, percent of total activity ([4]; 22 minutes post injection): 25.4% of total activity
Intestines, percent of total activity ([4]; 22 minutes post injection): 2.6% of total activity
Kidneys, percent of total activity ([4]; 22 minutes post injection): 5.4% of total activity
Liver, percent of total activity ([4]; 22 minutes post injection): 2.9% of total activity
Stomach, percent of total activity ([4]; 22 minutes post injection): < 1% of total activity
Removal/excretion by the kidneys, in words ([4]; rats): more rapid renal clearance than ^99m Tc MAG3
Removal/excretion by the kidneys, in words ([4]; rats, listed as 99m Tc-D,D-EC): superior to L,L-EC in rats

O=C(O)C(CS)NCCNC(CS)C(=O)O (stereo not drawn) [EC, ethylene dicysteine]
Protein binding characteristics (plasma protein): favorable protein binding characteristics

O=C([O-])[C@H](C[S-])NCCN[C@@H](CS)C(=O)[O-].[O]=[Tc+3] [L,L-EC, L,L-ethylenedicysteine]
Clearance rate (EC/OIH) [2]: 70±3%
Dianionic form at physiological pH [3]: 80%
Monoanionic form at physiological pH [3]: 20%
Bladder, percent of total activity ([4]; 22 minutes post injection): 45.6% of total activity
Carcass, percent of total activity ([4]; 22 minutes post injection): 22.6% of total activity
Intestines, percent of total activity ([4]; 22 minutes post injection): 1.8% of total activity
Kidneys, percent of total activity ([4]; 22 minutes post injection): 24.4% of total activity
Liver, percent of total activity ([4]; 22 minutes post injection): 4.5% of total activity
Stomach, percent of total activity ([4]; 22 minutes post injection): < 1% of total activity
Comparison with ^99m Tc DD-EC [5]: superior to the enantiomer ^99m Tc DD-EC
Pharmacokinetic properties compared with OIH and MAG3 [5]: more closely approached those of OIH than the properties of MAG3

O=C(O)CNC(=O)CNC(=O)CNC(=O)CS [MAG3, mercaptoacetyltriglycine]
Clearance compared to DTPA ([6]; in vivo): higher clearance of MAG3 compared to DTPA
Clearance relative to OIH ([6]; percent of OIH clearance): 50-60%
Transport into the small intestine via the hepatobiliary system ([7]; normal volunteers): a small percentage
Transport into the small intestine via the hepatobiliary system ([7]; patients with renal failure): this percentage increases in patients with renal failure
Plasma-protein binding, in words (plasma protein): very high
Extraction rate (kidneys): favorably high extraction rate
Bladder, percent of total activity ([4]; 22 minutes post injection): 57% of total activity
Carcass, percent of total activity ([4]; 22 minutes post injection): 14% of total activity
Intestines, percent of total activity ([4]; 22 minutes post injection): 5% of total activity
Kidneys, percent of total activity ([4]; 22 minutes post injection): 23% of total activity
Liver, percent of total activity ([4]; 22 minutes post injection): 1% of total activity
Stomach, percent of total activity ([4]; 22 minutes post injection): < 1% of total activity

C[C@H](NC(=O)CNC(=O)CS)C(=O)NCC(=O)O [MAGAG, mercaptoacetylglycylalanylglycine]
Comparison with ^99m Tc MAG3 [8]: one diastereomer comparable and the other considerably inferior

O=C(O)CNC(=O)c1ccccc1[131I] [OIH, ^131 I-orthohippurate]
Clearance relative to p-aminohippuric acid (PAH) ([6]; percent of PAH clearance): 83%

D,L-ethylenedicysteine [DL-EC]
Rate of excretion in the urine [2]: had a slower rate of excretion
Clearance rate (EC/OIH) [2]: 40±5%

L-cysteinylethylenepyridine carboxamide [L-CEPIC]
Renal clearance, in words (kidney): renal clearance efficiency similar to that of ^99m Tc MAG3
Bladder, percent of total activity ([4]; 30 minutes post injection): 58.2% of total activity
Carcass, percent of total activity ([4]; 30 minutes post injection): 19.8% of total activity
Intestines, percent of total activity ([4]; 30 minutes post injection): 6.4% of total activity
Kidneys, percent of total activity ([4]; 30 minutes post injection): 7.2% of total activity
Liver, percent of total activity ([4]; 30 minutes post injection): 4.8% of total activity
Stomach, percent of total activity ([4]; 30 minutes post injection): 1.9% of total activity
Removal/excretion by the kidneys, in words ([4]; rats): rapid and selective removal of the test compounds by the kidneys
Uptake in other major organs ([4]; rats): only trace amounts being taken up in other major organs
Removal/excretion by the kidneys, in words ([4]; rats, listed as 99m Tc-CEPIC): even more rapidly excreted by the kidneys than ^99m Tc MAG3

^99m Tc L,L-ethylenedicysteine diethyl ester [^99m Tc LL-ECD]
Brain perfusion (brain): good brain perfusion agent

^99m Tc mercaptoacetyl-glycylglycyl-taurine
Comparison with ^99m Tc MAG3 in dogs [9]: inferior to ^99m Tc MAG3 in dogs

thioacetamidethiourea-ethylCOOH [TATU-EtCOOH]
Renal clearance, in words (kidney): superior renal clearance in rats when compared to a corresponding metal chelate with MAG3

thioacetamidethiourea-para-phenylCOOH [TATU-pPhCOOH]
Renal clearance, in words (kidney): cleared at a moderate rate by the kidneys in rat
Renal clearance, in words (kidney; listed as TATU-pPh): cleared at a moderate rate

— patent US5986074A, “Metal chelates as pharmaceutical imaging agents, processes of making such and uses thereof” (Emory University, priority 1997, dated 1999)
